These results are taken from publication PMC8706783 (Pharmaceutics, 2021).

In data set [1] the target is T1, UGT1A8 (Homo sapiens, UniProt Q9HAW9).
T1 sequence (Q9HAW9 26-530): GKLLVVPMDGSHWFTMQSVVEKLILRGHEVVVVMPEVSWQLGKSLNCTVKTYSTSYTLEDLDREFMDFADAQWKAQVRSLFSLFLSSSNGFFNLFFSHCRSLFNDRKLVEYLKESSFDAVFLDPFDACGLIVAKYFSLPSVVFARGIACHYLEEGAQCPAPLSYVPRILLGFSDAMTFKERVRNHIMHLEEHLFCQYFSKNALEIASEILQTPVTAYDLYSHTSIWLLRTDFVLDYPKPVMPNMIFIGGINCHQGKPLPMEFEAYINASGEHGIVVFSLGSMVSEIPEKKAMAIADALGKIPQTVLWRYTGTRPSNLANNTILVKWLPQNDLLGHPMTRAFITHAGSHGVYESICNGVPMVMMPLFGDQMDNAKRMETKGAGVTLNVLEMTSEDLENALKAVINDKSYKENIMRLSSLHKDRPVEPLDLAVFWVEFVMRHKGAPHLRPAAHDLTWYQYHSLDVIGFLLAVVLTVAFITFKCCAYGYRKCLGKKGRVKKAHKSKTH
As to the kind of experiment: Enzyme inhibition assay, UGT1A8.

The target of data set [2] is T2, UGT1A7 (Homo sapiens, UniProt Q9HAW7).
T2 sequence (Q9HAW7 26-530): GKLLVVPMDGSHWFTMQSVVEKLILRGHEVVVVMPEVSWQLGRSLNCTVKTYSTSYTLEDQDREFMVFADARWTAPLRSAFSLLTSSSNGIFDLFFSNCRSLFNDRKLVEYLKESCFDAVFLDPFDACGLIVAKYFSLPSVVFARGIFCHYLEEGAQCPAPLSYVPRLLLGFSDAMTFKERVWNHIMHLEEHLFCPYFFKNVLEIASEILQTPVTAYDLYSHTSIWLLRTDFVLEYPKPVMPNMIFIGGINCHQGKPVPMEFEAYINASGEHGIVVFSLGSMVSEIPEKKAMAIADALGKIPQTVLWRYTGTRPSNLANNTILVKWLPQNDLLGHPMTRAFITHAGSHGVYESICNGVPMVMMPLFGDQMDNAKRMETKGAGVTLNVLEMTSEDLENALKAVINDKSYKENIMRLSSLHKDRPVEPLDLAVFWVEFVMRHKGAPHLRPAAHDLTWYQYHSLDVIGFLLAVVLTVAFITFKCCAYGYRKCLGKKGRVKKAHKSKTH
As to the kind of experiment: Enzyme inhibition assay, UGT1A7.

The target of data set [3] is CYP2C19 (Homo sapiens, UniProt P33261). Kind of data set: Enzyme inhibition assay, CYP2C19. The following applies: HLM; CYP2C19 S-mephenytoin 4′-hydroxylation.
CYP2C19, sequence (P33261 whole entry): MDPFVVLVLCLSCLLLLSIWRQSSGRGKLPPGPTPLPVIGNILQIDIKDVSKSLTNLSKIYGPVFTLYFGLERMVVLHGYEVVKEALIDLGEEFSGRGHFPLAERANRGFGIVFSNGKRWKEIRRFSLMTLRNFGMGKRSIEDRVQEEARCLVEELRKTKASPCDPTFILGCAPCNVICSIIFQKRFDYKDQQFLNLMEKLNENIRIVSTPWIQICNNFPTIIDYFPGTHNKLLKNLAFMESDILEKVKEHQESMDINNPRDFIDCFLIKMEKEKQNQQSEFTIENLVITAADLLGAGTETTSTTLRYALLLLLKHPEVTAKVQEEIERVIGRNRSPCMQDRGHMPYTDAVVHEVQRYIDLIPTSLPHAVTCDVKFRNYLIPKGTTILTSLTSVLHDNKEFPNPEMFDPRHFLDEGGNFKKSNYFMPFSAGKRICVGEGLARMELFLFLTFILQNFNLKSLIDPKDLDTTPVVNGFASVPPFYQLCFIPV
In data set [4] the target is T3, UGT1A1 (Homo sapiens, UniProt P22309).
T3 construct: from tissue
T3 sequence (P22309 26-533): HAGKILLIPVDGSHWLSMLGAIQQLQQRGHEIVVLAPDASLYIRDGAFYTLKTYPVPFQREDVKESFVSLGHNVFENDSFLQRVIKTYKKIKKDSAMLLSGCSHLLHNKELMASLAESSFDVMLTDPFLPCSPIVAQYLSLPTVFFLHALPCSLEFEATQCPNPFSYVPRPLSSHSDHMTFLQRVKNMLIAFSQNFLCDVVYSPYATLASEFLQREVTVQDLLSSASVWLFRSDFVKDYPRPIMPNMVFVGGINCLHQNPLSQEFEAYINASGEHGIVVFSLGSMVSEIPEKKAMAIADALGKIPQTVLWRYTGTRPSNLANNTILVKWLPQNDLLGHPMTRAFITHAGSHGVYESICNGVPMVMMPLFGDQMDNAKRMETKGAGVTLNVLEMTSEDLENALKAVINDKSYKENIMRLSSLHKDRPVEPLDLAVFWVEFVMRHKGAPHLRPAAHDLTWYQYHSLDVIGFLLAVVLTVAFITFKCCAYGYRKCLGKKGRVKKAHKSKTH
As to the kind of experiment: Enzyme inhibition assay, UGT1A1. It counts as in vitro ADME. The following applies: HLM; UGT1A1 SN38 glucuronidation; read-out: IC50.

Data set [5] deals with CYP3A4 (Homo sapiens, UniProt P08684). Kind of data set: Reaction phenotyping, rCYP3A4. To be noted: recombinant enzyme, pH 7.4.
CYP3A4, sequence (P08684 whole entry): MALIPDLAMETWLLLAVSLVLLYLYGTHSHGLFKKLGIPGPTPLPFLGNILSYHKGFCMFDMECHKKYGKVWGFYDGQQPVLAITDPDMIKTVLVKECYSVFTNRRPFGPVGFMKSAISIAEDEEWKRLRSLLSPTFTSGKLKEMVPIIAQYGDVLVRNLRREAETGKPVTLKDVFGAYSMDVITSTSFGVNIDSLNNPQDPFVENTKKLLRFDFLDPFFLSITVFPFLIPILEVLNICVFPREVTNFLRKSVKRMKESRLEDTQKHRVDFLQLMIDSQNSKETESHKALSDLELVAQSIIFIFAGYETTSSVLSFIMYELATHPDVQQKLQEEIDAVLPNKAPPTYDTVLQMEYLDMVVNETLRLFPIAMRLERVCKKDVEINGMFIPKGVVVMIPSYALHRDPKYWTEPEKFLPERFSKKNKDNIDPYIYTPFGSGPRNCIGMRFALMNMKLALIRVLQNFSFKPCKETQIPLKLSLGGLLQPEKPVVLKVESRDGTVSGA
Data set [6] in a line: Reaction phenotyping, HLM with NADPH. To be noted: human, human liver microsomes, pH 7.4; HLM (Phase 1), Midazolam (1 µM); read-out: Known Substrate (% Remaining at 60 min). The format is in vitro ADME, human.
The subject of data set [7] is CYP1A2. Kind of data set: Enzyme induction assay, CYP1A2 activity in primary human hepatocytes. The format is in vitro ADME. To be noted: plated cryopreserved primary human hepatocytes, O-deethylation.
For data set [8], the target named is T4, UGT1A9 (Homo sapiens, UniProt O60656).
T4 sequence (O60656 26-530): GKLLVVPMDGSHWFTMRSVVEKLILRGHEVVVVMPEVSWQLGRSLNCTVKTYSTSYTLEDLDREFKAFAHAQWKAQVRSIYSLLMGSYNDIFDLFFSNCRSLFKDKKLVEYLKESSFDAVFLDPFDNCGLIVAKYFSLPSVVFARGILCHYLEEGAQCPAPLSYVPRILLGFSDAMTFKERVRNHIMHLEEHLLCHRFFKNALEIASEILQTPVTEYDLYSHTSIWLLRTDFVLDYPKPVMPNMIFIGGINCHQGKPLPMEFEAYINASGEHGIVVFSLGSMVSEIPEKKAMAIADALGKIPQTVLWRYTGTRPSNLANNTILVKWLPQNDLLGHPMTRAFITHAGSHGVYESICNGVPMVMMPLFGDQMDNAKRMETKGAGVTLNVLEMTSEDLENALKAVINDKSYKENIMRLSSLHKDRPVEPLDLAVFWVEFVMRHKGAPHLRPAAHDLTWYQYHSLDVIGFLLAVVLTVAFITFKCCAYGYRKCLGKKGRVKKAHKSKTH
As to the kind of experiment: Enzyme inhibition assay, UGT1A9. It counts as in vitro ADME. Also on record: from tissue. To be noted: HLM; UGT1A9 mycophenolic acid glucuronidation.

Data set [9] addresses rUGT1A1 (Homo sapiens, UniProt P22309). As to the kind of experiment: Reaction phenotyping, rUGT1A1. To be noted: rUGT1A1, SN38 (0.5 µM).
Data set [10] has as its target T5, UGT1A4 (Homo sapiens, UniProt P22310).
T5 sequence (P22310 29-534): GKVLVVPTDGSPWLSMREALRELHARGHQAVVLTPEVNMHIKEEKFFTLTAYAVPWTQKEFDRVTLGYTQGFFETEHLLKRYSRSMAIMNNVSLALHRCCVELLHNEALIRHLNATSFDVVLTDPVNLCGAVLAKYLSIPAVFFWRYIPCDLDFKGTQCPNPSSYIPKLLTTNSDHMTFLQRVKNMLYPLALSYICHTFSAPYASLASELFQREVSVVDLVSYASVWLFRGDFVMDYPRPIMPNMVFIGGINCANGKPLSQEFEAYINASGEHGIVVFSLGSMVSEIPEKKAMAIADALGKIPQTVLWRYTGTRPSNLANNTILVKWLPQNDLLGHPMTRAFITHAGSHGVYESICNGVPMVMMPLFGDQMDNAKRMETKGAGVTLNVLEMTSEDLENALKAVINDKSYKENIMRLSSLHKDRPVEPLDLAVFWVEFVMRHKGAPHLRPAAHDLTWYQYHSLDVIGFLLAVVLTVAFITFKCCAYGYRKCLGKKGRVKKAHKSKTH
As to the kind of experiment: Enzyme inhibition assay, UGT1A4.

The target in data set [11] is T6, UGT2B7 (Homo sapiens, UniProt P16662).
T6 sequence (P16662 24-529): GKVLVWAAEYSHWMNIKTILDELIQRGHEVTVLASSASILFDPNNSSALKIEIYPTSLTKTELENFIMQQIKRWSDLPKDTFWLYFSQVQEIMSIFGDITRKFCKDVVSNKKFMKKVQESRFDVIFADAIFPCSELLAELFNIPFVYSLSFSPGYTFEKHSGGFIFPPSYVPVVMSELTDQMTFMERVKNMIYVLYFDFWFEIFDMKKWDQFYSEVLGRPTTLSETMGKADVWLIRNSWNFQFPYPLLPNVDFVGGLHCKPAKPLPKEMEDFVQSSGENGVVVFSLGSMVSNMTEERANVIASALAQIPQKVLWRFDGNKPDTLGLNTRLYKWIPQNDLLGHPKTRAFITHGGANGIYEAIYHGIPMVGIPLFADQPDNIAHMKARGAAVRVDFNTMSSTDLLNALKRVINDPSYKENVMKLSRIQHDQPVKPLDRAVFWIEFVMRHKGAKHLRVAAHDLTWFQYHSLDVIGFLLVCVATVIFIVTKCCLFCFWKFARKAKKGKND
Kind of data set: Enzyme inhibition assay, UGT2B7. The format is in vitro ADME. Details: from tissue. To be noted: HLM; UGT2B7 zidovudine glucuronidation.

For data set [12], the target named is T7, CYP1A1 (Homo sapiens, UniProt P04798).
T7 sequence (P04798 1-512): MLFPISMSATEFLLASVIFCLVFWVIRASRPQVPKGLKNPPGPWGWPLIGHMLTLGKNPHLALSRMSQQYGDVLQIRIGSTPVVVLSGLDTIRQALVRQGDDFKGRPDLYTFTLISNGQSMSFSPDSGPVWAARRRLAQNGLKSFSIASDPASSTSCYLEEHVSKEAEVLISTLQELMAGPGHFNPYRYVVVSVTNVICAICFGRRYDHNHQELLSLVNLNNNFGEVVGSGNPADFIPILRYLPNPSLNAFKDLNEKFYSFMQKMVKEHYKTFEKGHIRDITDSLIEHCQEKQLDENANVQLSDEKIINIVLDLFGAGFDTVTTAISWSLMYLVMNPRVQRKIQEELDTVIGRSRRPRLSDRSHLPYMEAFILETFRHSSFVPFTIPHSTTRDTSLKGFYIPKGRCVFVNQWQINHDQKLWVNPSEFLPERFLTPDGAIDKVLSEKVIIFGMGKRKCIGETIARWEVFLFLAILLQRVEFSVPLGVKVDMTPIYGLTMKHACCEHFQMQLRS
Kind of data set: Enzyme inhibition assay, CYP1A1. The format is in vitro ADME. Also on record: purchased Xenotech LLC. The following applies: Recombinant CYP1A1; phenacetin-O-deethylation.

In data set [13] the test system is CYP2B6. Kind of data set: Enzyme induction assay, CYP2B6 activity in primary human hepatocytes. To be noted: CYP2B6 bupropion hydroxylation, DPV 303 nM, phenobarbital 1 mM.

As to `O=c1cc(-c2ccc(O)c(-c3c(O)cc(O)c4c(=O)cc(-c5ccc(O)cc5)oc34)c2)oc2cc(O)cc(O)c12` [Amentoflavone], the values for the IC50 in [1] and in data set [2] were 5570 nM and 46.1 nM, respectively.

`CCC1(c2ccccc2)C(=O)NC(=O)N(Cc2ccccc2)C1=O` (single isomer, unassigned; (-)) [(-)-N-3-benzyl-phenobarbital]: the IC50 in data set [3] amounted to 148 nM.

Regarding `COC(=O)N[C@H](C(=O)N[C@@H](Cc1ccccc1)[C@@H](O)CN(Cc1ccc(-c2ccccn2)cc1)NC(=O)[C@@H](NC(=O)OC)C(C)(C)C)C(C)(C)C` [Atazanavir], the IC50 in data set [4] came to 110 nM.

With `Cc1ncc2n1-c1ccc(Cl)cc1C(c1ccccc1F)=NC2` [Midazolam], in data set [5], the fraction remaining at 1 h, 1 µM amounted to 4.02%. Also, the share remaining at 1 h in data set [6] was 0%.

`COc1ccc2[nH]c([S+]([O-])Cc3ncc(C)c(OC)c3C)nc2c1` (centres unmarked) [Omeprazole]: the fold induction at 72 h, 303 nM worked out at 14 ± 2.43 in data set [7] (donor HU2036, probe phenacetin (100 µM)); 35.5 ± 2.03 in [7] (donor HU2068, probe phenacetin (100 µM)); 32.7 ± 6.67 in data set [7] (donor HU8373, probe phenacetin (100 µM)).

Turning to `O=C(O)c1cccnc1Nc1cccc(C(F)(F)F)c1` [Niflumic acid], half-maximal inhibition in [8] (IC50) was put at 150 nM.

In the case of `CCc1c2c(nc3ccc(O)cc13)-c1cc3c(c(=O)n1C2)COC(=O)[C@]3(O)CC` [SN38], the “Known Substrate (% Remaining at 60 min)” value in data set [9] was “SN38 (74.87) %”.

In data set [10], `C[C@@H]1CC[C@@]2(OC1)O[C@H]1C[C@H]3[C@@H]4CC[C@H]5C[C@@H](O)CC[C@]5(C)[C@H]4CC(=O)[C@]3(C)[C@H]1[C@@H]2C` [Hecogenin] returned a half-maximal inhibitory concentration (IC50) of 960 nM.

`OC(Cn1cncn1)(Cn1cncn1)c1ccc(F)cc1F` [Fluconazole] came in with an IC50 in [11] of 712000 nM.

Turning to `Cc1nc2c([nH]1)c(=O)n(C)c(=O)n2Cc1ccco1` [Furafylline], the half-maximal inhibitory concentration (IC50) in [12] is 4760 nM.

Take `CCC1(c2ccccc2)C(=O)NC(=O)NC1=O` [Phenobarbital]: the fold induction at 72 h, 303 nM in data set [13] (donor HU2036, over negative control) was found to be 7.63 ± 0.82; in data set [13] (donor HU2068, over negative control), 6.43 ± 1.02; in data set [13] (donor HU8373, over negative control) it was 10.7 ± 0.61.

As a reminder, the IC50 is the concentration that inhibits the measured activity by half. One may read the fraction remaining as the share of the starting amount still present when the sample was taken. One may read the fold induction as the signal under treatment as a multiple of the control signal.
